Assay results published in US7868024B2, “Derivatives of N-(heteroaryl)-1-heteroaryl-1H-indole-2-carboxamides, preparation thereof and therapeutic use thereof” (Sanofi-Aventis, priority 2007, dated 2011).

Target: T1, TRPV1 receptor (Rattus norvegicus, UniProt O35433)
T1 construct: The neurons of the DRG naturally express the TRPV1 receptor; endogenous in cells; host or cells: primary culture of newborn rat dorsal root ganglion (DRG) neurons
T1 sequence (O35433 whole entry): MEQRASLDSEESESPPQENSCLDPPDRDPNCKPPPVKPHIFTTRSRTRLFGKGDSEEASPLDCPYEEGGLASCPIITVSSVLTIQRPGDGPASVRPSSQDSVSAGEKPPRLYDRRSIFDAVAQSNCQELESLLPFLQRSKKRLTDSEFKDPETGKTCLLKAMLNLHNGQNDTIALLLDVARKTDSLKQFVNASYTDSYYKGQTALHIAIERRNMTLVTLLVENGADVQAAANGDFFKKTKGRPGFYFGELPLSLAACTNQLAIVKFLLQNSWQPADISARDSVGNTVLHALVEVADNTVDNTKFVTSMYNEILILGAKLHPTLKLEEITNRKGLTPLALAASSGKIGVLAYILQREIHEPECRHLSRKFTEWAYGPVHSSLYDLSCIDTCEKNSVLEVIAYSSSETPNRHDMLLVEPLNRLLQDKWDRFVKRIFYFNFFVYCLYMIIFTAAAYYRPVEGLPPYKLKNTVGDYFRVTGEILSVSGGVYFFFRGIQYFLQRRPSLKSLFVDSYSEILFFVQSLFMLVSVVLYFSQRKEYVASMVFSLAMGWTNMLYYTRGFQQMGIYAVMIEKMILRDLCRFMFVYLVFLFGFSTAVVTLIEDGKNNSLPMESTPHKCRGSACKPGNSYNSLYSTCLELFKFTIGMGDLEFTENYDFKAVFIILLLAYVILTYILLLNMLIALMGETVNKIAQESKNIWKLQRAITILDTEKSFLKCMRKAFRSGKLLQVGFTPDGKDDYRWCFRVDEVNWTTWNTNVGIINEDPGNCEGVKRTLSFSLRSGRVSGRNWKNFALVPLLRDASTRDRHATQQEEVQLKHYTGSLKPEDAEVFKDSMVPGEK
Experiment: Inhibition of the current induced by capsaicin in rat DRG cells (whole-cell patch clamp)
Format: cell-based
Conditions: DRG neuron; compound at 10 nM; capsaicin (1 μM) response; primary culture of newborn rat DRG neurons; read-out: % Inhibition by the DRG patch technique
Experimental: Test of the Inhibition of the Current Induced by Capsaicin with Regard to Rat DRGs
Primary Culture of Rat Dorsal Root Ganglion (DRG) Cells:
The neurons of the DRG naturally express the TRPV1 receptor.
Primary cultures of DRGs of newborn rats are prepared from 1-day-old rats. Briefly, after dissection, the ganglions are trypsinized and their cells dissociated mechanically by gentle trituration. […]
The measurement chambers (volume 800 μl) comprising the cell preparation are placed on the stage of an inverted microscope (Olympus IMT2) equipped with Hoffman optics (Modulation Contrast, New York) and are observed at a magnification of 400×. […] The overall currents (membrane potential set at −60 mV) are recorded with an Axopatch 1D amplifier (Axon Instruments, Foster City, Calif.) connected to a PC controlled by Pclamp8 software (Axon Instruments). The current plots are recorded on paper and simultaneously recorded digitally (sampling frequency 15 to 25 Hz) and acquired on the hard disk of the PC.
The application of a micromolar capsaicin solution produces an incoming cationic current with regard to the DRG cells (voltage set at −70 mV). […] The results are expressed as % of inhibition of the control capsaicin response.
With `Cc1cc(C)nc(-n2c(C(=O)Nc3ccc4c(c3)nc(C)n4C)cc3cc(F)ccc32)c1` [Compound No. 10, N-(1,2-Dimethyl-1H-benzimidazol-5-yl)-5-fluoro-1-(4,6-dimethylpyridin-2-yl)-1H-indole-2-carboxamide] the inhibition at 0.01 µM was 70%.

Tested on: not given
Experiment: not given
Conditions: not given
In the case of `Cn1ccc2cc(NC(=O)c3cc4cc(F)ccc4n3-c3cccnc3)ccc21` [Compound No. 2, N-(1-methyl-1H-indol-5-yl)-5-fluoro-1-(pyridin-3-yl)-1H-indole-2-carboxamide], the melting point is reported as 203 to 205 °C. `Cn1ccc2cc(NC(=O)c3cc4cc(F)ccc4n3-c3ccccn3)ccc21` [Compound No. 3, N-(1-Methyl-1H-indol-5-yl)-5-fluoro-1-(pyridin-2-yl)-1H-indole-2-carboxamide] gave a melting point of 210 to 211 °C. With `Cc1nc2cc(NC(=O)c3cc4cc(F)ccc4n3-c3ccncc3)ccc2n1C` [Compound No. 4, N-(1,2-Dimethyl-1H-benzimidazol-5-yl)-5-fluoro-1-(pyridin-4-yl)-1H-indole-2-carboxamide] the melting point was 226 to 229 °C. Compound `Cc1nc2cc(NC(=O)c3cc4cc(F)ccc4n3-c3ccccn3)ccc2n1C` [Compound No. 5, N-(1,2-Dimethyl-1H-benzimidazol-5-yl)-5-fluoro-1-(pyridin-2-yl)-1H-indole-2-carboxamide] has a melting point of 260 to 261 °C. Compound `Cc1nc2cc(NC(=O)c3cc4cc(F)ccc4n3-c3cccnc3)ccc2n1C` [Compound No. 6, N-(1,2-Dimethyl-1H-benzimidazol-5-yl)-5-fluoro-1-(pyridin-3-yl)-1H-indole-2-carboxamide] has a melting point of 139 to 141 °C. With `Cc1ccnc(-n2c(C(=O)Nc3ccc4c(ccn4C)c3)cc3cc(F)ccc32)c1` [Compound No. 7, N-(1-methyl-1H-indol-5-yl)-5-fluoro-1-(4-methylpyridin-2-yl)-1H-indole-2-carboxamide] the melting point was 276 to 279 °C. Compound `Cc1ccnc(-n2c(C(=O)Nc3ccc4c(c3)nc(C)n4C)cc3cc(F)ccc32)c1` [Compound No. 8, N-(1,2-Dimethyl-1H-benzimidazol-5-yl)-5-fluoro-1-(4-methylpyridin-2-yl)-1H-indole-2-carboxamide] has a melting point of 270 to 278 °C. `Cc1cc(-n2c(C(=O)Nc3ccc4c(ccn4C)c3)cc3cc(F)ccc32)ccn1` [Compound No. 9, N-(1-Methyl-1H-indol-5-yl)-5-fluoro-1-(2-methylpyridin-4-yl)-1H-indole-2-carboxamide] showed a melting point of 213 to 216 °C. Work on `Cc1cc(C)nc(-n2c(C(=O)Nc3ccc4c(ccn4C)c3)cc3cc(F)ccc32)c1` [Compound No. 11, N-(1-Methyl-1H-indol-5-yl)-5-fluoro-1-(4,6-dimethylpyridin-2-yl)-1H-indole-2-carboxamide] yielded a melting point of 198 to 199 °C.
